Here are results for four molecules from US10092529B2, “Necrosis inhibitors” (National Institute of Biological Sciences, Beijing, priority 2014, dated 2018).

As usually defined, the IC50 is the midpoint of a concentration-inhibition curve. The term EC50 denotes the midpoint of the concentration-response curve. Usually inhibition stands for the relative decrease from the control value, in per cent.

Assay [1] deals with hRIP1 kinase (recombinant full-length RIPK1 protein with N-terminal GST-tag) (Homo sapiens (Human), UniProt Q13546). The assay is described as follows: Kinase assay of RIPK1 (ADP-Glo). It counts as biochemical. To be noted: for IC50: 161 nM RIPK1, 50 uM ATP, 20 uM MBP, 90 min. On the procedure:
Materials: Recombinant full-length RIPK1 protein with N-terminal GST-tag (Cat#R07-34G) was purchased from SignalChem. The ADP-Glo™ kinase assay kit (Cat#V9102) was from Promega. MBP (cat# M2295) protein and all the other chemicals were from Sigma. The 384-well assay plates (Cat#3674, white, opaque) were purchased from Corning.
Kinase activity assay and data analysis: The RIPK1 kinase assay was performed in white 384-well plate. The assay buffer contained 25 mM HEPES (pH7.2), 20 mM MgCl2, 12.5 mM MnCl2, 5 mM EGTA, 2 mM EDTA, 12.5 mM β-glycerol phosphate and 2 mM DTT. RIPK1 was first incubated with compounds or DMSO control for […], then ATP/MBP substrate mixture was added to initiate the reaction. The final concentration of RIPK1 was 161 nM, while the final concentration of ATP was 50 uM, and MBP 20 uM. After 90 min reaction at room temperature, the ADP-Glo reagent and detection solution were added following the technical manual of ADP-Glo™ kinase assay kit (Promega). The luminescence was measured on PerkinElmer Enspire. The data was analyzed using Graphpad Prism (GraphPad Software; www.graphpad.com). The curves were fitted using a non-linear regression model with a sigmoidal dose response.

The test system of another assay is HT-29 cells. Put plainly: Necrosis assay: TNF-α/Smac mimetic/z-VAD induced necrosis, cell viability by CellTiter-Glo. It counts as cell-based. On the procedure:
HT-29 cells were cultured in McCoy's 5A culture medium (Invitrogen). On day one, HT-29 cells were plated in 96-well assay plates at density of 2,500-3,500 cells per well. On day two, necrosis were induced by adding 20 ng/ml TNF-α (T), 100 nM Smac mimetic (S), and […] z-VAD (Z). At the same time, […] compound from a chemical library of ˜200,000 compounds was delivered into each well. After 24 hrs treatment, cell viability was determined by measuring ATP level using the CellTiter-Glo Luminescent Cell Viability Assay kit. A CellTiter-Glo Assay (Promega) was performed according to the manufacturer's instructions Luminescence was recorded with a PerkinElmer EnSpire Multimode Plate Reader. Survived cells were normalized to those cells treated with DMSO. Nec-1 was used as a positive control for screening necrosis inhibitors. Data are represented as mean±standard deviation of duplicates.
Dose-dependent inhibition of necrosis by compound #9 and the derivative compounds in HT-29 cells were determined by measuring ATP levels as described above.

[2] abbreviates: Homo sapiens, necrosis induced by TNF-α/Smac mimetic/z-VAD, 24 hrs, ATP level, read-out: Cell viability assay, EC50.
[3] abbreviates: inhibition of necrosis, ATP levels, range given in nM, read-out: EC50 (necrosis activity).

Read-outs that look alike come from different tables or passages of the source.

Chain of hRIP1 kinase (recombinant full-length RIPK1 protein with N-terminal GST-tag) (Q13546 whole entry): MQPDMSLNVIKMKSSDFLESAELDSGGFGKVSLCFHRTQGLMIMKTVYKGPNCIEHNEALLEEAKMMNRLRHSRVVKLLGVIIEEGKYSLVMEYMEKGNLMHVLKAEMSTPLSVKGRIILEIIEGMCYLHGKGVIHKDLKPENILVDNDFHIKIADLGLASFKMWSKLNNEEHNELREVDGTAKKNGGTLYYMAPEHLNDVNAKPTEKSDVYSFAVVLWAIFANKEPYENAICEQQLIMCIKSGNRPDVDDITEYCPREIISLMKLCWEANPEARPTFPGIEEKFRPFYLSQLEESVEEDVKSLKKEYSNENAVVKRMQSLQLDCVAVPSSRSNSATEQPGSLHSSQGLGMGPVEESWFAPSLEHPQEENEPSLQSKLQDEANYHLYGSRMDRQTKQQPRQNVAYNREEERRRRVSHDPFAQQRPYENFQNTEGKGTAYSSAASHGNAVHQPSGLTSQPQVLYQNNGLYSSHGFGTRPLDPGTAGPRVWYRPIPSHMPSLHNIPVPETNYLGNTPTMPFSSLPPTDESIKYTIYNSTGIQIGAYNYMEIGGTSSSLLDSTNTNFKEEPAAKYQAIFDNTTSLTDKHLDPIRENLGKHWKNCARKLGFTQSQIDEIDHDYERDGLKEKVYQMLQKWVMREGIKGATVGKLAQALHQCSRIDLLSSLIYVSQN

With `CCC(C)(C)C(=O)N1CCC1c1ccccc1` (stereo not drawn) [Compound 2, 2,2-dimethyl-1-(2-phenylazetidin-1-yl)butan-1-one], the 50% inhibitory concentration (IC50) in assay [1] was 34.8 nM. The half-maximal effective concentration (EC50) in the assay on HT-29 cells (setting [2]) is 29.6 nM; with HT-29 cells (setting [3]), 1 to 1000 nM.

With `CCC(C)(C)C(=O)N1CCCC1c1cc(F)cc(F)c1F` (stereo not drawn) [Compound 10, 2,2-dimethyl-1-(2-(2,3,5-trifluorophenyl)pyrrolidin-1-yl)butan-1-one], in assay [1], the IC50 stood at 22.5 nM. The EC50 in the assay with HT-29 cells (setting [2]) is 9.88 nM; with HT-29 cells (setting [3]) it was 1 to 1000 nM.

For `C=CC(C)(C)C(=O)N1C(=O)C[C@H]1c1ccccc1` [Compound 38, (S)-1-(2,2-dimethylbut-3-enoyl)-4-phenylazetidin-2-one], the half-maximal inhibitory concentration (IC50) in assay [1] is 13.7 nM. For the same molecule, the 50% effective concentration (EC50) is 8.39 nM with HT-29 cells (setting [2]) and 1 to 1000 nM in the assay with HT-29 cells (setting [3]).

As to `CCC(C)(C)C(=O)N1C[C@@H](O)C[C@H]1c1ccccc1` [Compound 13, 1-((2S,4S)-4-hydroxy-2-phenylpyrrolidin-1-yl)-2,2-dimethylbutan-1-one], in assay [1], the inhibition at 2 µM is 69%. In addition, the EC50 in the assay with HT-29 cells (Homo sapiens, inhibition of necrosis, ATP levels, range given in uM, read-out: EC50 (necrosis activity)) was 1000 to 10000 nM; in the assay with HT-29 cells (setting [2]) it was 2620 nM.
